Results from US8795691B2, “Nanotubes and compositions thereof” (Brown University, priority 2010, dated 2014).

Key:
Format in all cases: cell-based
[1] = test system: human fetal osteoblast cell line (ATCC, CRL-11372); assay: Osteoblast adhesion on RNT-coated titanium; settings: coated on Ti, 4 h, FIG. 5
Description: (§1) Titanium (Ti) (1 cm×1 cm×0.05 cm) (Alfa Aesar Ti foil) and glass coverslips were soaked in acetone for 15 min, sonicated for 15 min in acetone, and rinsed with dH2O. They were then soaked and sonicated in 70% ethanol and rinsed with dH2O. Lastly, they were soaked and sonicated in dH2O for another 15 min and rinsed. The glass was then etched in 1 M NaOH for 1 h and thoroughly rinsed in dH2O. All of the Ti and glass coverslips were oven-dried overnight and autoclaved for sterilization. The day before cell seeding, the cleaned Ti substrates were coated with the various RNTs (0.01 mg/mL) and KRSR peptide (0.01 mg/mL) solutions for 45 min at room temperature. They were then removed from the solutions and air-dried overnight. […]
(§2) Osteoblasts, fibroblasts and endothelial cells were seeded onto the substrates at a density of 3500 cells/cm^2 and were incubated in the cell culture medium (specifically, DMEM supplemented with FBS and P/S for osteoblasts, EMEM supplemented with FBS for fibroblasts and MCDB-131 complete medium for endothelial cells) for 4 h. […] The cell density was then determined by counting cells using Image Pro Analyzer. […]
(§3) Data are presented as the mean value±the standard error of the mean and were analyzed with a student's t-test to make pair-wise comparisons. […]

[2] = test system: rat skin fibroblast cell line (FR, ATCC, CRL-1213); assay: Fibroblast adhesion on RNT-coated titanium; settings: 4 h, FIG. 7
Description: as §1, §2, §3

[3] = test system: Rat aortic endothelial cells (RAEC); assay: Endothelial cell adhesion on RNT-coated titanium; settings: coated on Ti, 4 h, FIG. 9
Description: as §1, §2, §3

Substance: lysine-arginine-serine-argine (KRSR) [KRSR peptide]
- osteoblast adhesion (in words) [1]: promoted more osteoblast cell adhesion relative to uncoated Ti
- fibroblast adhesion compared to uncoated Ti [2]: did not enhance fibroblast adhesion
- endothelial cell adhesion / density [3]: did not enhance endothelial cell adhesion
